# Assay results published in patent US20210128596A1, “COMPOSITIONS AND METHODS FOR TREATING SEPTIC CARDIOMYOPATHY” (UNIVERSITY OF PENNSYLVANIA, priority 2017, published 2021).
# Entries after “also recorded” stand apart in the source; their conditions may differ.
# What was measured:
# [1] = system: AC16 cells; assay: cAMP levels in AC16 cells; type: cell-based, human
# Description: AC16 cells were either left unstimulated or stimulated with either forskolin or isoproterenol for 12 hours and then treated with SDG, Liposaccharide (LPS) or both.
# Cell culture—A human ventricular cardiomyocyte-derived cell line, designated AC-16, was used for some in vitro experiments. Cells were maintained in Dulbecco's modified Eagle's medium-nutrient mixture F-12 (DMEM-F-12; Invitrogen, Carlsbad, Calif.).
# [2] = system: MCU and MICU1; assay: MCU and MICU1 expression in heart tissue of CLP mice; type: in vivo, mouse
# Description: Mice were either sham treated (n=3) or subjected to cecal ligation puncture (CLP, n=6). SDG was administered to three mice following CLP.
# (§1) RNA purification and gene expression analysis—Total RNA was purified from AC16 cells or hearts using the TRIzol reagent according to the instructions of the manufacturer (Invitrogen). DNase-treated RNA was used for cDNA synthesis using the ProtoScript II First Strand cDNA Synthesis Kit (New England Biolabs). Quantitative real-time PCR was performed with the Sybr Select Master Mix (Applied Biosystems). Incorporation of the SYBR green dye into the PCR products was monitored with the Applied Biosystems StepOnePlus Real-Time PCR System. Samples were normalized against mouse 36B4 or human rps13 RNA.
# Protein purification and analysis—Isolated heart tissue or AC16 cells were homogenized in radioimmune precipitation assay buffer containing protease and phosphatase inhibitors (Pierce Protease and Phosphatase Inhibitor Mini Tablets, Thermo Scientific). 30-50 μg of total protein extract was applied to SDS-PAGE and transferred onto nitrocellulose membranes.
# [3] = system: adult cardiomyocytes isolated from septic mice; assay: Seahorse oxygen consumption rate in cardiomyocytes isolated from septic mice; type: in vivo, mouse
# Description: Mice were either sham treated or subjected to cecal ligation puncture followed by SDG treatment. The oxygen consumption rate (OCR) was measured in a seahorse assay.
# Adult mouse cardiomyocytes isolation—Adult mouse cardiomyocytes (ACMs) were isolated from ventricles of C57BL/6 mice 12 hours post-sham surgery, CLP surgery or combined performance of CLP and treatment with LGM2605 at 6 hours post-surgery. Hearts from heparinized mice (90 USP; ip) were cannulated through the aorta. Hearts were perfused with perfusion buffer (120.4 mMNaCl, 14.7 mM KCL, 0.6 mM NaH2PO4, 0.6 mM KH2PO4, 1.2 mM MgSO4, 10 mM Hepes, 4.6 mM NaHCO3, 30 mMtaurine, 10 mM BDM, 5.5 mM glucose; pH 7.4) for 3 min followed by digestion with perfusion buffer containing 19250 units Collagenese type II (Worthington), 5-6 mg trypsin and 0.02 mM CaCl2 for 7 min. Ventricles were gently teared into small pieces, perfusion buffer containing 5 mg/ml BSA and 0.125 mM CaCl2 was added and filtered with 100 μm nylon. The filtrate was pelleted by gravity for 5 min, centrifuged for 30 sec at 700 rpm and the pellet resuspended in perfusion buffer containing 5 mg/ml BSA and 0.225 mM CaCl2. The cells were pelleted by gravity for 10 min, centrifuged for 30 sec at 700 rpm and the pellet resuspended in perfusion buffer containing 5 mg/ml BSA and 0.525 mM CaCl2.
# Seahorse analysis—Isolated primary ACMs were counted with Hematocytometer. Dead cells were detected with Trypan Blue Dye staining. Cells were platted (3000 cells per well) in XF96 Seahorse® plates pre-coated with laminin with 20 μg/ml laminin (Invitrogen, 23017). In order to assess oxygen consumption rates (OCR) for fatty acid oxidation (FAO) recordings, cells were incubated in substrate limited medium (DMEM containing 10 mM Glucose, 1.025 mM CaCl2, 0.5 mM carnitine, pH=7.4) and assayed with fatty acid oxidation medium as per manufacturer's protocol. Before starting the assay, 1 mM palmitate conjugated with BSA was added in each well. Drugs used for maximal response during fatty acid oxidation were: Oligomycin (3 μM) (Sigma, 04875) which blocks complex V, FCCP (2 μM) (Sigma, C2920) that leads to the collapse of the proton gradient, and Rotenone/Antimycin A (0.5 μM) (Sigma, A8674)/(Sigma, R8875) where rotenone blocks complex I and antimycin A blocks complex III. The pre-hydrated with XF assay calibrant, XF cartridges were filled with the drugs and the cartridge was calibrated for 30 minutes in Seahorse Analyzer. All experiments were performed at 37° C. Calculations were made as described in the Seahorse manual and XF Seahorse Mito Stress Test kit user guide. Briefly, basal respiration was calculated with subtraction of non-mitochondrial respiration rate from the last measurement prior to first injection. Maximal respiration was calculated by subtraction of the non-mitochondrial respiration measurement from maximum measurement after FCCP injection. ATP synthesis-related OCR was obtained indirectly by measuring ATP-linked respiration in the presence of complex V inhibitor (Oligomycin). The decrease of oxygen consumption rate representing the portion of basal respiration that was used to drive ATP synthesis was calculated with subtraction of the minimum measurement after Oligomycin injection from the last measurement prior to Oligomycin injection. Spare Respiratory Capacity was equal to (maximum respiration)−(basal respiration).
# [4] = system: IL-1α, IL-1β, IL-6, TNFα; assay: Cardiac mRNA expression of inflammatory cytokines; type: in vivo, mouse; conditions: 6 hours or 12 hours post-CLP
# Description: as §1
# [5] = CLP + LGM2605 (6 hrs post-CLP), cardiomyocytes 12 hrs after surgery
structure (smiles),measurement,setting,value
"COc1cc(C[C@@H](CO[C@@H]2O[C@H](CO)[C@@H](O)[C@H](O)[C@H]2O)[C@H](CO[C@@H]2O[C@H](CO)[C@@H](O)[C@H](O)[C@H]2O)Cc2ccc(O)c(OC)c2)ccc1O [LGM2605, secoisolariciresinol diglucoside]",cAMP levels,[1]; SDG in the presence of LPS,this increase was abolished in the presence of LPS
same,cAMP levels,[1]; in the presence of forskolin or isoproterenol,appears to be insignificant
same,cAMP levels,"[1]; non-stimulated, 12 hours",increased cAMP levels
same,MCU protein level (western blot),"[2]; heart tissue, SDG following CLP, listed as SDG",increases MCU protein level; also recorded: increased protein expression of the mitochondrial calcium uniporter
same,MCU and MICU1 mRNA and protein expression,"[2]; ventricular tissue 12 hours post-CLP, LGM2605 6 hrs post-CLP",did not affect expression of these proteins
same,basal respiration and oxygen consumption rate associated with ATP synthesis,[3]; [5],"increased basal respiration levels (FIG. 18B) and oxygen consumption rate associated with ATP synthesis (FIG. 18C), compared to both CLP and sham mice"
same,maximal respiration and respiratory spare capacity,[3]; [5],markedly elevated by LGM2605 treatment
same,"maximal respiration, ATP production, non-mitochondrial oxygen consumption",[3]; CLP + SDG relative to levels observed after CLP,"statistically significant increase in maximal respiration, ATP production, and non-mitochondrial oxygen consumption relative to levels observed after CLP"
same,"basal respiration, maximal respiration, ATP production, non-mitochondrial oxygen consumption",[3]; CLP + SDG relative to the untreated levels,"statistically significant increase in basal respiration, maximal respiration, ATP production, and non-mitochondrial oxygen consumption relative to the untreated levels"
same,oxygen consumption rate (OCR),"[3]; CLP followed by SDG treatment vs CLP and sham, listed as SDG",more than compensated for that decrease; also recorded: increased oxygen consumption rate (OCR) compared to CLP alone and sham operated mice
same,proton leakage,"[3]; sham, CLP, CLP + SDG",no statistically significant changes in proton leakage were observed
same,"cardiac mRNA levels of IL-1α, IL-1β, IL-6, and TNFα",[4],did not reduce mRNA levels
